Test [1] has as its target T1, human HIF-PHD2 (Homo sapiens, UniProt Q9GZT9).
T1 construct: purchased CrystalGenomics Ltd
Put plainly: HIF-PHD inhibition assay (fluorescence polarization), human HIF-PHD2. It is filed as biochemical. The settings on record: 2-oxoglutaric acid 3.33 μmol/L. The gist of the method: (§1)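 FP readout; enzyme activity = mP post-enzyme − mP pre-enzyme. FAM-labelled probe, ACA spacer.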

Test [2] concerns Hep3B cells. Briefly: EPO production assay (ELISA of culture supernatant). It is filed as cell-based. The conditions noted are these: Homo sapiens, 3 μmol/L test compound, 48 hours, relative to control (0.1% DMSO), read-out: EPO production stimulation rate with 3 μmol/L test compound. The gist of the method:
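Values are fold EPO production at 3 μmol/L compound relative to untreated control, quantified by ELISA of culture supernatant. Hep3B cells were exposed for 48 h in MEM containing 0.5% FBS and 0.1% DMSO.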

Test [3] addresses T2, human HIF-PHD3 (Homo sapiens, UniProt Q9H6Z9).
T2 construct: purchased CrystalGenomics Ltd
Briefly: HIF-PHD inhibition assay (fluorescence polarization), human HIF-PHD3. It is filed as biochemical. The conditions noted are these: 2-oxoglutaric acid 166 μmol/L. The gist of the method:
as §1
A general note: Fluorescence polarisation rises when a labelled molecule tumbles more slowly, as on binding a larger partner.

Molecules are shown by their SMILES.

Broadly, the IC50 is the point on the concentration scale where inhibition reaches its midpoint. A high value points to weaker potency.

T1 sequence (Q9GZT9 2-426 limits assumed): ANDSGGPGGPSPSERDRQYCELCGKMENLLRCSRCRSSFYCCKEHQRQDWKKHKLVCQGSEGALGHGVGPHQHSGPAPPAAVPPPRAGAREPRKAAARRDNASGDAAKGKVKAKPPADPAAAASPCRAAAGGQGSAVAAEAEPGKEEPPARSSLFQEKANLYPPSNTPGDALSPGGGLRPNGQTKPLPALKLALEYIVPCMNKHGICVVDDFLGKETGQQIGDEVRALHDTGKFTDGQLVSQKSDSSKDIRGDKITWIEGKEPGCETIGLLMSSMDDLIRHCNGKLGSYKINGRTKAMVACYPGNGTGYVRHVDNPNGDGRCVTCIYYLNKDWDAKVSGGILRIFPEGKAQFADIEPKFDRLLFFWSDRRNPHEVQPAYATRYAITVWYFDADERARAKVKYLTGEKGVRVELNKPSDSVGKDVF
T2 sequence (Q9H6Z9 whole entry): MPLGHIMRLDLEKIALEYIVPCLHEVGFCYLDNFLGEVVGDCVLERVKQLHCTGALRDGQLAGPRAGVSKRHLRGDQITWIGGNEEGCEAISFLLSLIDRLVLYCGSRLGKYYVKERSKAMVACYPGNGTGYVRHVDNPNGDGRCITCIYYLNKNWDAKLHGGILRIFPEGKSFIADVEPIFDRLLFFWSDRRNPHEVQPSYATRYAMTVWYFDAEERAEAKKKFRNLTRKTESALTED

Take `C[C@@H](c1ccc(C(F)(F)F)cc1)n1nc(Cl)c2nc(-n3cc(C(=O)O)cn3)nc(O)c21` [Example 443]: the values for the IC50 in test [1] and in test [3] were 16 nM and 250 nM, respectively. In addition, the fold induction at 3 µM in test [2] was found to be 2.9.

For `O=C(O)c1cnn(-c2nc(O)c3nn(C(c4ccc(Cl)cc4)c4ccc(Cl)cc4)cc3n2)c1` [Example 239], the results for the IC50 in test [1] and in test [3] were 5.5 nM and 99 nM, respectively. Also, in test [2], the fold induction at 3 µM was determined as 1.4.

As to `O=C(O)c1cnn(-c2nc(O)c3c(cnn3CC3CCC4(CCC4)CC3)n2)c1` [Example 379], the IC50 in test [1] stood at 16 nM; in test [3] it was 200 nM. The fold induction at 3 µM in test [2] is 10.

Take `O=C(O)c1cnn(-c2nc(O)c3c(cnn3C3CCCCC3)n2)c1` [Example 135]: the IC50 worked out at 74 nM in test [1] and 380 nM in test [3]. Further, the fold induction at 3 µM in test [2] turned out to be 6.1.

Turning to `Cc1ccc(Cn2ncc3nc(-n4cc(C(=O)O)cn4)nc(O)c32)cc1-c1ccccc1` [Example 53], the half-maximal inhibitory concentration (IC50) worked out at 25 nM in test [1] and 410 nM in test [3]. For the same compound, in test [2], the fold induction at 3 µM came out at 3.3.

For the compound `N#Cc1ccccc1-c1ccc(Cn2ncc3nc(-n4cc(C(=O)O)cn4)nc(O)c32)c(F)c1` [Example 87], the results for the IC50 in test [1] and in test [3] were 50 nM and 260 nM, respectively. The fold induction at 3 µM in test [2] was 5.3.

As to `O=C(O)c1cnn(-c2nc(O)c3c(cnn3Cc3ccc4c(c3)CCCC4)n2)c1` [Example 36], the concentration for half-maximal inhibition (IC50) in test [1] was 15 nM; in test [3] it was 170 nM. Further, the fold induction at 3 µM in test [2] amounted to 1.4.

Regarding `O=C(O)c1cnn(-c2nc(O)c3c(cnn3Cc3ccc(-c4cccc(F)c4F)cc3)n2)c1` [Example 76], the IC50 is 9.1 nM in test [1] and 120 nM in test [3]. Besides, the fold induction at 3 µM in test [2] came out at 6.9.

Turning to `O=C(O)c1cnn(-c2nc(O)c3c(cnn3CC3CCN(c4ccc(C(F)(F)F)cc4)CC3)n2)c1` [Example 170], the IC50 in test [1] was 19 nM; in test [3] it was 280 nM. Further, the fold induction at 3 µM in test [2] is 19.

Consider `Cc1c(Cn2ncc3nc(-n4cc(C(=O)O)cn4)nc(O)c32)ccc2ccccc12` [Example 35], for which the IC50 in test [1] came out at 18 nM; in test [3], 250 nM. Besides, the fold induction at 3 µM in test [2] was 5.7.

In the case of `O=C(O)c1cnn(-c2nc(O)c3c(cnn3Cc3ccc(-c4ccccc4F)c(F)c3F)n2)c1` [Example 101], the values for the concentration for half-maximal inhibition (IC50) in test [1] and in test [3] were 15 nM and 120 nM, respectively. For the same compound, the fold induction at 3 µM in test [2] is 12.

Regarding `O=C(O)c1cnn(-c2nc(O)c3c(cnn3CC3CCN(c4ccc(C(F)(F)F)cn4)CC3)n2)c1` [Example 171], the results for the IC50 in test [1] and in test [3] were 14 nM and 160 nM, respectively. Besides, the fold induction at 3 µM in test [2] was 11.

Take `CC(C)(Cn1ncc2nc(-n3cc(C(=O)O)cn3)nc(O)c21)Oc1cccc2ccccc12` [Example 212]: the 50% inhibitory concentration (IC50) in test [1] was 26 nM; in test [3] it was 310 nM. Moreover, in test [2], the fold induction at 3 µM was found to be 2.7.

Turning to `O=C(O)c1cnn(-c2nc(O)c3c(cnn3Cc3ccccc3-c3ccccc3)n2)c1` [Example 38], the values for the IC50 in test [1] and in test [3] were 150 nM and 1800 nM, respectively. Moreover, in test [2], the fold induction at 3 µM worked out at 2.9.

Consider `Cc1nn([C@@H](C)c2ccc(C(F)(F)F)cc2)c2c(O)nc(-n3cc(C(=O)O)cn3)nc12` [Example 446], for which the IC50 in test [1] amounted to 18 nM; in test [3], 480 nM. The fold induction at 3 µM in test [2] was 6.3.

For the origin of these results see US20150239889A1, “PYRAZOLOPYRIMIDINE COMPOUND” (MITSUBISHI TANABE PHARMA CORPORATION, priority 2012, published 2015).
